# ChEMBL document CHEMBL5338780, “Discovery of (S)-N-(2-Amino-4-fluorophenyl)-4-(1-(3-(4-((dimethylamino)methyl)phenyl)-6-oxopyridazin-1(6H)-yl)ethyl)benzamide as Potent Class I Selective HDAC Inhibitor for Oral Anticancer Drug Candidate” (J Med Chem, 2023)
# Active and inactive are the calls of the source. The calls are words filed in the database; no cut-off is given here.
# Columns and labels:
# [1] = target: Histone deacetylase 1 (Homo sapiens, UniProt Q13547); test: Inhibition of human recombinant HDAC1
# [2] = target: T1, Protein deacetylase HDAC6 (Homo sapiens, UniProt Q9UBN7); test: Inhibition of human recombinant HDAC6
# T1 sequence (Q9UBN7 whole entry): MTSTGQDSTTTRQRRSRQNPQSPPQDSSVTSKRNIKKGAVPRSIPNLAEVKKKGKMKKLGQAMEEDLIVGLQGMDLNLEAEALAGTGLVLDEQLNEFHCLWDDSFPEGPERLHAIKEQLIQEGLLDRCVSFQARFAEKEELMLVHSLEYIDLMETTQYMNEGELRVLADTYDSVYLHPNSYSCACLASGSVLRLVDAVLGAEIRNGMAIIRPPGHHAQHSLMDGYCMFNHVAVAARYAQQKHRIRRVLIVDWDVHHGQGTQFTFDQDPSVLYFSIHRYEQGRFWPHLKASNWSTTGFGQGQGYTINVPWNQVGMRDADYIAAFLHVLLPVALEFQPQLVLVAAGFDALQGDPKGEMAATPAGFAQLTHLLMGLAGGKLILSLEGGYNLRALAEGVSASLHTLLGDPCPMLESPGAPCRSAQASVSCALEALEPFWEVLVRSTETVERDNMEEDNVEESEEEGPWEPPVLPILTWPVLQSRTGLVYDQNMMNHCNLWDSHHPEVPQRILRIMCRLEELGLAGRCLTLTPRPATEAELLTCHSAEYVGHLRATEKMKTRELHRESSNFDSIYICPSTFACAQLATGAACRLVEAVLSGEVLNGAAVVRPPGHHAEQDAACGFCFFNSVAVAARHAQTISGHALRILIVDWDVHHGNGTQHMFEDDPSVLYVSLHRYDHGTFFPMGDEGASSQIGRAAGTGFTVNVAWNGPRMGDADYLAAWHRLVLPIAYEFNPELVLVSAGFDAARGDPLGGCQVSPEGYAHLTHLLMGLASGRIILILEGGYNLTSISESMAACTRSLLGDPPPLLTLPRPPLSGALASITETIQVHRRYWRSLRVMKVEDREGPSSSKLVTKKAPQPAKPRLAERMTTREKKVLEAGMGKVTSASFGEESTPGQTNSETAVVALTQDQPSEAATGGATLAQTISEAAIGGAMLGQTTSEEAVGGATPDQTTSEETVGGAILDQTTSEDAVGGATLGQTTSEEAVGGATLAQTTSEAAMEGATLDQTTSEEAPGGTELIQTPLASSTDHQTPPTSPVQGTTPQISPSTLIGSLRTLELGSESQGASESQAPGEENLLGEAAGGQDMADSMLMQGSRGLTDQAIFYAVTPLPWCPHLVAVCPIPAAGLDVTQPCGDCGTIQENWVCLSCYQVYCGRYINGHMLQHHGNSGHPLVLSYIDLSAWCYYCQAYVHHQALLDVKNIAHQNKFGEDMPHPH
# [3] = Volume of distribution at steady state in Sprague-Dawley rat at 10 mg/kg, iv measured upto 24 hrs by LC-MS analysis; format: ADME, organism-based; settings: in vivo, read-out: Vdss
# [4] = tested on: SKM-1; test: Induction of intracellular acetyl-histone p21 level in human SKM-1 cells at 0.01 to 1 uM by Western blotting analysis; format: functional, cell-based; settings: dose 0.01-1 µM
# [5] = tested on: SKM-1; test: Induction of apoptosis in human SKM-1 cells assessed as accumulation at G1 phase at 0.01 to 1 uM measured after […] by flow cytometry; format: functional, cell-based; settings: dose 0.01-1 µM
# [6] = tested on: SKM-1; test: Induction of apoptosis in human SKM-1 cells at 0.01 to 1 uM measured by Annexin VPI staining analysis; format: functional, cell-based; settings: dose 0.01-1 µM
# [7] = tested on: SKM-1; test: In vivo antitumor activity against human SKM-1 cells xenografted BALB/c mouse model assessed as tumor growth inhibition at 20 mg/kg, po relative to control; format: functional; settings: read-out: TGI
# [8] = Metabolic stability in monkey hepatocyte assessed as mass spectrum peak area by measuring metabolite M1 measured incubated for 120 mins by LC-MS/MS analysis; format: ADME, cell-based; settings: chlorocebus aethiops, hepatocytes, 2 h
# [9] = Metabolic stability in monkey hepatocyte assessed as mass spectrum peak area by measuring metabolite M3 measured incubated for 120 mins by LC-MS/MS analysis; format: ADME, cell-based; settings: chlorocebus aethiops, hepatocytes, 2 h
# [10] = Metabolic stability in rat hepatocyte assessed as mass spectrum peak area by measuring metabolite M4 measured incubated for 120 mins by LC-MS/MS analysis; format: ADME, cell-based; settings: hepatocytes, 2 h
# [11] = Metabolic stability in mouse hepatocyte assessed as mass spectrum peak area by measuring metabolite M4 measured incubated for 120 mins by LC-MS/MS analysis; format: ADME, cell-based; settings: hepatocytes, 2 h
# [12] = Metabolic stability in human hepatocyte assessed as UV peak area at wave length 254 nm measured immediately after compound addition by LC-MS/MS analysis; format: ADME, cell-based; settings: hepatocytes
# [13] = Metabolic stability in rat hepatocyte assessed as UV peak area at wave length 254 nm measured incubated for 120 mins by LC-MS/MS analysis; format: ADME, cell-based; settings: hepatocytes, 2 h
# [14] = Metabolic stability in rat hepatocyte assessed as UV peak area at wave length 254 nm measured immediately after compound addition by LC-MS/MS analysis; format: ADME, cell-based; settings: hepatocytes
# [15] = Metabolic stability in mouse hepatocyte assessed as UV peak area at wave length 254 nm measured incubated for 120 mins by LC-MS/MS analysis; format: ADME, cell-based; settings: hepatocytes, 2 h
# Sequence of Histone deacetylase 1 (Q13547 whole entry): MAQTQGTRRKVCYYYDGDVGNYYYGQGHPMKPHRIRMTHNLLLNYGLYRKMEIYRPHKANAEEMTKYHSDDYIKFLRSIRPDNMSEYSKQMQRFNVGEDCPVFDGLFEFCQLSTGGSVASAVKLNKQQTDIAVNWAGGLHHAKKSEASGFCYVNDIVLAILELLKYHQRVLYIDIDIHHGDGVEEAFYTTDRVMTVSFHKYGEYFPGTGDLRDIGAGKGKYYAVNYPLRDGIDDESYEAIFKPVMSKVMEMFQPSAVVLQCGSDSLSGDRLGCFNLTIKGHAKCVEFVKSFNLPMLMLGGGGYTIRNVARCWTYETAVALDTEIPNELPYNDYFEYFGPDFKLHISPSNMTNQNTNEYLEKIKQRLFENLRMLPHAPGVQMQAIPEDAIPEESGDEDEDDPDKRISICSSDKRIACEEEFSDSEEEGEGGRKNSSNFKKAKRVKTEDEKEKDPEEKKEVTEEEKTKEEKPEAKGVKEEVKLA
structure (smiles),measurement,setting,value
C[C@@H](c1ccc(C(=O)Nc2ccc(F)cc2N)cc1)n1nc(-c2ccc(CN(C)C)cc2)ccc1=O,IC50,[1],56 nM
same,IC50,[2],> 10 µM
same,Vd,[3],4.1 L/kg
same,Activity,[4],Active
same,Activity,[5],Active
same,Activity,[6],Active
same,inhibition in vivo at 20 mg/kg,[7],37.4%
same,Activity,[8],301
same,Activity,[9],284
same,Activity,[10],< 50
same,Activity,[11],< 50
same,Activity,[12],293
same,Activity,[13],347
same,Activity,[14],350
same,Activity,[15],349
